Reference: US20140335532A1, “HUMAN SKIN SAMPLE METHODS AND MODELS FOR VALIDATING HYPOTHESES FOR MECHANISMS DRIVING SKIN PIGMENTATION” (The Procter & Gamble Company, priority 2011, published 2014)

Tests used:
9 epidermal tone genes [1] = assay: Endogenously driven ex-vivo human skin tissue, transcription of epidermal tone genes vs untreated control; type: cell-based; details: for # Genes (out of 9) with p ≦ 0.1: endogenously driven tissue sample, 37° C. and 70% humidity, epidermal genes regulated vs untreated control, 2-10 experiments each
Protocol: Referring to FIGS. 11 to 15, examples are shown for the regulation of the 9 epidermal tone genes against an untreated control in an endogenously driven ex-vivo tissue system at 37° C. and 70% humidity for niacinamide, hexamidine, N-Acetyl glucosamine, kojic acid, tranexamic acid, and undecylenoyl phenylalanine (2-10 experiments each). […] For instance, out of the 9 epidermal genes, at least one compound (Hexamidine) regulated 9 genes (with a statistical significance of p<0.1 or better) while two compounds regulated 5 or fewer genes (with a p<0.1 or better). Table 1 below summarizes the number of epidermal genes regulated by certain materials in an endogenously driven tissue sample with a statistical significance of p≦0.1.
Culturing involved setting up culture plates: putting 2.5 ml of media or treatment into each well of a 6-well tissue plate, adding one Millicell culture insert to each well, and putting 100 μl of 1×DMEM on the center of each insert membrane. Squares were selected randomly placed into each of the inserts (one piece of skin per insert), on top of the media on the membrane. The plates were stored at either 33° C. (though an additional non-limiting example would be 37° C. depending on the experiment endpoint). As a control, baseline tissue measurements were collected from excess waste (cryogenics were used for snap freezing). Baseline biopsy collection involved two 4 mm punches for MTT; One 4 mm punch was snap frozen in OCT for fresh histology; One 4 mm punch was fixed in 10% formalin and sent out for paraffin embedding. PCR baseline was also be taken with six 4 mm punches snap frozen in liquid nitrogen.
Culture and treatment of the model comprised replicates of n=5 (though replicates of additional quantities may be used such as n=6). Media Dosing of skin involved solubilizing used in appropriate solvents (including PBS, Media, alcohol, and DMSO; in using DMSO, the final concentration in the plate was restricted to 0.01%). Appropriate dilutions were made for treatment: 15 ml of media were required per plate per day for treatment, with 2.5 ml of media required per well under the cell culture insert. Media was pre-warmed and changed every day during the experiment.
Skin was topically dosed. To do so, formulation for a compound of interest was obtained. Variation was minimized by having a vehicle that was as close to test formula as possible (making sure glycerin concentration was the same, determining if there was a vitamin package in the formula, determining if there was niacimamide; all of these were the same between the vehicle control formula and the test formula) (in ideal embodiments, the only difference is the unknown test compound). The skin was treated using a positive displacement pipette with 20 ul of formulation. A sterile cotton swab was used after application to spread and rub in the formula. Media was changed every day. The media was aspirated and replaced with fresh warmed media at a level of 2.5 ml per well.
For cryopreparation and extraction the following equipment was obtained and prepared: 2 ml round bottom tubes were prepared with 1 ml of TRIZOL as was a 5 mm stainless steel bead for each sample; a dry ice bucket was obtained and liquid nitrogen was placed in the bucket. Biopsy punches were maintained on dry ice, and samples remained frozen. Cryobags and covaris cryoprep were used in freeze fracturing of samples. To freeze fracture the samples, biopsies were placed in a cryo bag (2 per sample) and dipped in liquid nitrogen, then placed in cryoprep (setting 4). The sample bag was taken out and dipped back into nitrogen. A flattened disk was removed and placed into corresponding 2 ml tubes with TRIZOL. The disk was kept frozen in the TRIZOL. The tube was closed and snap frozen, and the whole tube was placed in liquid nitrogen. After repeating the process with all the samples, samples were placed into boxes and stored at −80 until the next step. […]

9 epidermal tone genes [2] = assay: Stem Cell Factor/Endothelin 1 driven ex-vivo human skin tissue, transcription of epidermal tone genes vs untreated control; type: cell-based; details: Stem Cell Factor/Endothelin 1 driven tissue sample; 37° C. and 70% humidity; out of 9 epidermal genes; 2-10 experiments each
Protocol: Referring to FIGS. 19 to 23, examples (of 2-10 experiments each) are shown for the regulation of the 9 epidermal tone genes against an untreated control in ex-vivo tissue driven by the combination of Stem Cell Factor and Endothelin at 37° C. and 70% humidity for niacinamide, hexamidine, N-Acetyl glucosamine, kojic acid, tranexamic acid, and undecylenoyl phenylalanine. […] For instance, out of the 9 epidermal genes, at least one compound (undecylenoyl phenylalanine) regulated 5 genes (with a statistical significance of p<0.1 or better) while two compounds regulated 2 or fewer genes (with a p<0.1 or better). Table 2 below summarizes the number of epidermal genes regulated by certain materials in a Stem Cell Factor/Endothelin 1 driven tissue sample with a statistical significance of p≦0.1.
In example embodiments, tone is driven by application of stem cell factor and/or endothelin (with skin preparation, culturing, and mRNA processing being completed as previously described). In an example embodiment, skin samples are placed within 6-well plates, with 2.5 ml of media per well. A concentration of eighty nanograms per milliliter of stem cell factor as well as eighty nanograms per milliliter of endothelin was applied to tissue in the wells, with the media being refreshed daily. The culture was maintained for seven days. Inhibitors of tone-related genes were applied; hexamidine and undecylenoyl phenylalanine were applied topically and daily in vehicles at 0.1% and 0.25%, respectively.

[3] = test system: facial skin pigmentation (spots, melanin evenness); assay: 9-week clinical study, randomized, double-blind, vehicle-controlled, split-face; type: in vivo, human; details: 9-week study
Description: For example, hexyldecanol was compared to vehicle controls and positive controls (5% Niacinamide+1% undecylenoyl phenylalanine) through a 9-week period. Specifically the trial included a 9-week clinical study with a randomized, double-blind, round robin, vehicle-controlled, split-face design, including one week normalization period whereby 330 subjects received test product.

[4] = test system: rat melanoma line known to produce melanin; assay: Total melanin assay in melanoma cell line; type: cell-based; details: rat melanoma cell cultures
Protocol: (§1) The ex-vivo screening method has provided identification of agents consistent with in-vitro studies and which have proven positive clinically. One such example is hexyldecanol. […] For example, total melanin assays were performed using a rat melanoma line known to produce melanin. […] Therefore, promising tone agents such as hexyldecanol identified from the in-vitro model and the ex-vivo model have been tested in clinical settings.

tone genes = assay: Human Ex-vivo Pre-Clinical Model, fold regulation of tone genes by clinical formulations; type: cell-based; details: FIGS. 25a and 25b
Protocol: FIGS. 25a and 25b show two respective tables showing ex-vivo model fold regulation changes indicating significant down-regulation by clinical formulations in the Human Ex-vivo Pre-Clinical Model.
as §1

tone genes of interest = assay: Ex-vivo tissue culture exposed to compounds known to stimulate the pigmentation pathway, tone gene regulation; type: cell-based, human; details: p≦0.1, minimum of 2-10 experiments each, FIG. 16

Row | Compound | # Genes (out of 9) with p ≦ 0.1 (9 epidermal tone genes [1]) | # of Genes with p ≦ 0.1 (9 epidermal tone genes [2]) | further results
1 | O=c1cc(CO)occ1O [Kojic Acid, kojic acid] | 5 | 2 | –
2 | CC(=O)N[C@H]1C(O)O[C@H](CO)[C@@H](O)[C@@H]1O (some centres unmarked) [NAG, N-Acetyl glucosamine] | 6 | 1 | –
3 | CCCCCCCCC(CO)CCCCCC (centres unmarked) [Hexyldecanol, hexyldecanol] | – | – | Overall clinical outcome vs vehicle ([3]; 330 subjects, significant if p<0.10 (1-sided) vs. vehicle): statistically better than vehicle controls; Melanin evenness ([3]; versus the vehicle control): significantly different from controls; Spot area fraction (total area of spots per face) ([3]; versus vehicle control group): significantly different from controls; Total melanin produced as compared to controls [4]: decreased; Ex-vivo model gene regulation (tone genes): down-regulation
4 | C=CCCCCCCCCC(=O)N[C@@H](Cc1ccccc1)C(=O)O [Undecylenoyl phenylalanine, undecylenoyl phenylalanine] | 3 | 5 | –
5 | tranexamic acid | 7 | 3 | –
6 | N=C(N)c1ccc(OCCCCCCOc2ccc(C(=N)N)cc2)cc1 [Hexamidine, hexamidine] | 9 | 4 | –
7 | Stem Cell Factor: compound known to stimulate the pigmentation pathway; paracrine agent | – | – | Regulation of tone genes of interest (tone genes of interest): up regulate one or more tone genes of interest
8 | α-MSH | – | – | Regulation of tone genes of interest (tone genes of interest): up regulate one or more tone genes of interest
9 | NC(=O)c1cccnc1 [Niacinamide, niacinamide] | 7 | 3 | Down-regulation of tone genes by donor Fitzpatrick type (9 epidermal tone genes [1]; 5% niacinamide, Fitzpatrick V donor vs two Fitzpatrick III donors, FIG. 1): more challenging to down-regulate
